Source: patent US8735129B2, “Ginsenoside glycosidase derived from the genus Terrabacter, and use thereof” (Korea Research Institute of Bioscience and Biotechnology, priority 2009, dated 2014)
Several values for one entry are separate records, joined by “and”; a condition that tells them apart may be missing. Equal entries are not always repeated. Where two headings read alike, the source gives them in different places. Values belong to the compound of their own block, whether it stands above or below them.

Experiments:
Type in all cases: biochemical, Terrabacter ginsenosidimutans Gsoil 3082
[1] = tested on: purified recombinant BGL-GYP17; test: Effects of metal ions and chemical agents on ginsenoside glycosidase activity (pNPGlc substrate)
recombinant Bgl-gyp17 [2] = test: Enzymatic hydrolysis of PPD-type ginsenosides (TLC, HPLC, NMR); conditions: 0.2 U enzyme, 50 mM sodium phosphate pH 7.0, 37° C., hydrolysis of glucoses at C-3
Experimental: In order to analyze the specificity and selectivity of the recombinant enzyme for the hydrolysis of glucose at the C-3 and C-20 positions of PPD-type ginsenoside, ginsenoside Rb1, Rb2, Rc, Rd, and Rg3 were used as substrates. Each reaction mixture containing 0.2 U enzyme, 50 mM sodium phosphate buffer 0.1% (w/v) (pH 7.0), and the substrate was incubated at 37° C. Each sample was withdrawn at regular intervals, and an equal volume of water-saturated butanol was added to stop the reaction. The n-butanol fraction was evaporated to dryness, and any residual material was dissolved in CH3OH and then examined by TLC HPLC or NMR analysis.

Bgl-gyp17 = test: Substrate preference with chromogenic oNP and pNP glycosides; conditions: 2.0 mM substrate; for Relative activity (%): 50 mM sodium phosphate pH 7.0, 37° C., activity on ONPGlu = 100%
Experimental: 1 activity unit was defined as the release of o-nitrophenol or p-nitrophenol per minute. For analysis of substrate preference, 2.0 mM chromogenic oNP and pNP (p-nitrophenyl) were used as the substrates, and incubated at 37° C. for 5 minutes. The analyzed substrates (Sigma) were pNP-β-D-glucopyranoside, pNP-β-D-galactopyranoside, pNP-β-D-fucopyranoside, pNP-β-D-glucosaminide, pNP-β-L-arabinopyranoside, pNP-β-D-mannopyronoside, pNP-β-D-xylopyranoside, pNP-α-D-glucopyranoside, pNP-α-L-arabinopyranoside, pNP-α-L-arabinopyranoside, pNP-α-D-rhamnopyranoside, pNP-α-D-mannopyranoside, pNP-α-D-xylopyranoside, o-nitrophenol[oNP]-β-D-glucopyranoside, oNP-β-D-galactopyranoside, oNP-β-D-fucopyranoside, and oNP-β-D-galactopyranoside.
In order to examine the substrate specificity of Bgl-gyp17, it was incubated in 50 mM sodium phosphate buffer containing 2.0 mM βα and β-type p-NP (p-nitrophenyl) and oNP (O-nitrophenyl)-glycosidase at pH 7.0 and 37° C. […] The Km and Vmax for the hydrolysis of pNPGlc by ginsenoside glycosidase were determined using 0-2 mM substrate and the enzyme kinetics program reported by Cleland. The values measured by the program were 4.24 mM and 0.10 mmol*min^−1*mg of protein^−1 for pNpGlc.

recombinant Bgl-gyp17 [3] = test: Enzymatic hydrolysis of PPD-type ginsenosides (TLC, HPLC, NMR)
[4] = 1 mM metal ion or reagent, 30 min at room temperature, pNPGlc substrate, 100% = 44.3 U/mg
[5] = 10 mM metal ion or reagent, 30 min at room temperature, pNPGlc substrate, 100% = 44.3 U/mg

SMILES: [Cl-].[Cl-].[Co+2] [CoCl2]
Relative activity (%) [1]: 100.9 ± 8.43% and 97.0 ± 5.04%

SMILES: CC(C)=CCC[C@](C)(O[C@@H]1O[C@H](CO)[C@@H](O)[C@H](O)[C@H]1O)[C@H]1CC[C@]2(C)[C@@H]1[C@H](O)C[C@@H]1[C@@]3(C)CC[C@H](O[C@@H]4O[C@H](CO)[C@@H](O)[C@H](O)[C@H]4O[C@@H]4O[C@H](CO)[C@@H](O)[C@H](O)[C@H]4O)C(C)(C)[C@@H]3CC[C@]12C [Ginsenoside Rd]
conversion of the ginsenoside by the enzyme (product) (recombinant Bgl-gyp17 [2]): converted into F2
conversion of the ginsenoside by the enzyme (product) (recombinant Bgl-gyp17 [2]; listed as Rd): C—K

Relative activity (%) [1, 4]: 98.4 ± 4.89%
Relative activity (%) [1, 5]: 102.5 ± 4.57%
SMILES: OCCS [Beta-Mercaptoethanol]

Relative activity (%) [1, 4]: 98.6 ± 6.49%
Relative activity (%) [1, 5]: 96.6 ± 4.52%
SMILES: O=C(O)CN(CCN(CC(=O)O)CC(=O)O)CC(=O)O [EDTA]

SMILES: O=[N+]([O-])c1ccc(O[C@H]2O[C@H](CO)[C@@H](O)[C@H](O)[C@H]2O)cc1 [pNP-α-D-glucopyranoside]
Relative activity (%) (Bgl-gyp17): 1.12 ± 0.214%

Relative activity (%) [1, 4]: 101.1 ± 5.45%
Relative activity (%) [1, 5]: 96.9 ± 4.79%
SMILES: [Cl][Mn][Cl] [MnCl2]

SMILES: O=[N+]([O-])c1ccc(O[C@@H]2OC[C@@H](O)[C@H](O)[C@H]2O)cc1 [pNP-β-D-xylopyranoside]
Relative activity (%) (Bgl-gyp17): 0%

Relative activity (%) [1, 4]: 96.7 ± 5.59%
Relative activity (%) [1, 5]: 96.6 ± 5.14%
SMILES: O[C@@H](CS)[C@@H](O)CS [DTT]

SMILES: CC(C)=CCCC(C)(OC1OC(COC2OCC(O)C(O)C2O)C(O)C(O)C1O)C1CCC2(C)C1C(O)CC1C3(C)CCC(OC4OC(CO)C(O)C(O)C4O)C(C)(C)C3CCC12C (stereo not drawn) [C—O, compound O]
conversion of the ginsenoside by the enzyme (product) (recombinant Bgl-gyp17 [2]): C—Y

Relative activity (%) [1, 4]: 94.8 ± 5.10%
Relative activity (%) [1, 5]: 95.2 ± 5.14%
SMILES: [Cl-].[Cl-].[Mg+2] [MgCl2]

SMILES: CC(C)=CCC[C@](C)(O[C@@H]1O[C@H](CO[C@@H]2O[C@@H](CO)[C@H](O)[C@H]2O)[C@@H](O)[C@H](O)[C@H]1O)[C@H]1CC[C@]2(C)[C@@H]1[C@H](O)C[C@@H]1[C@@]3(C)CC[C@H](O[C@@H]4O[C@H](CO)[C@@H](O)[C@H](O)[C@H]4O)C(C)(C)[C@@H]3CC[C@]12C [C-Mc1, compound Mc1]
conversion of the ginsenoside by the enzyme (product) (recombinant Bgl-gyp17 [2]): C-Mc

SMILES: O=[N+]([O-])c1ccc(OC2OCC(O)C(O)C2O)cc1 [pNP-β-L-binopyranoside]
Relative activity (%) (Bgl-gyp17): 0%

SMILES: C[C@@H]1O[C@@H](Oc2ccc([N+](=O)[O-])cc2)[C@H](O)[C@H](O)[C@H]1O [pNP-α-L-rhamnopyranoside]
Relative activity (%) (Bgl-gyp17): 0%

SMILES: [Cl-].[Na+] [Nacl, NaCl]
Relative activity (%) [1]: 102.3 ± 5.15% and 97.7 ± 4.51%

Relative activity (%) [1, 4]: 84.7 ± 4.48%
Relative activity (%) [1, 5]: 71.7 ± 5.07%
SMILES: [Cl][Cu][Cl] [CuCl2]

SMILES: O=[N+]([O-])c1ccc(O[C@@H]2OC[C@H](O)[C@H](O)[C@H]2O)cc1 [pNP-α-L-arabinopyranoside]
Relative activity (%) (Bgl-gyp17): 0%

concentration showing an inhibitory effect [1]: ≥ 10 mM
Relative activity (%) [1, 4]: 94.8 ± 6.98%
Relative activity (%) [1, 5]: 2.7 ± 3.22%
SMILES: CCCCCCCCCCCCOS(=O)(=O)[O-].[Na+] [SDS]

SMILES: CC(C)=CCC[C@](C)(O[C@@H]1O[C@H](CO[C@@H]2O[C@H](CO)[C@@H](O)[C@H](O)[C@H]2O)[C@@H](O)[C@H](O)[C@H]1O)[C@H]1CC[C@]2(C)[C@@H]1[C@H](O)C[C@@H]1[C@@]3(C)CC[C@H](O[C@@H]4O[C@H](CO)[C@@H](O)[C@H](O)[C@H]4O)C(C)(C)[C@@H]3CC[C@]12C [gyp XVII, gypenoside XVII]
conversion of the ginsenoside (recombinant Bgl-gyp17 [3]; printed: when ginsenoside Rb1 was 0.1 mg/ml): subsequently converted into gyp LXXV
conversion of the ginsenoside by the enzyme (product) (recombinant Bgl-gyp17 [2]): C—K

SMILES: [Cl-].[K+] [KCl]
Relative activity (%) [1, 4]: 102.7 ± 4.65%
Relative activity (%) [1, 5]: 96.2 ± 4.64%

SMILES: O=[N+]([O-])c1ccc(O[C@@H]2O[C@H](CO)[C@@H](O)[C@H](O)[C@@H]2O)cc1 [pNP-β-D-mannopyranoside]
Relative activity (%) (Bgl-gyp17): 0%

SMILES: C[C@H]1O[C@@H](Oc2ccc([N+](=O)[O-])cc2)[C@H](O)[C@@H](O)[C@H]1O [pNP-β-D-fucopyranoside]
Relative activity (%) (Bgl-gyp17): 6.98 ± 0.063%

SMILES: O=[N+]([O-])c1ccc(O[C@@H]2O[C@H](CO)[C@@H](O)[C@H](O)[C@H]2O)cc1 [pNP-β-D-glucopyranoside, p-nitrophenyl-β-D-glucopyranoside]
Relative activity (%) (Bgl-gyp17): 89.52 ± 4.430%

SMILES: O=[N+]([O-])c1ccccc1O[C@@H]1O[C@H](CO)[C@H](O)[C@H](O)[C@H]1O [oNP-β-D-galatopyranoside]
Relative activity (%) (Bgl-gyp17): 2.33 ± 0.081%

SMILES: O=[N+]([O-])c1ccccc1O[C@H]1O[C@H](CO)[C@H](O)[C@H](O)[C@H]1O [oNP-α-D-galactopyranoside]
Relative activity (%) (Bgl-gyp17): 0%

SMILES: N[C@H]1[C@H](Oc2ccc([N+](=O)[O-])cc2)O[C@H](CO)[C@@H](O)[C@@H]1O [pNP-β-D-glucosaminide]
Relative activity (%) (Bgl-gyp17): 0%

SMILES: O=[N+]([O-])c1ccc(O[C@H]2O[C@H](CO)[C@@H](O)[C@H](O)[C@@H]2O)cc1 [pNP-α-D-mannopyranoside]
Relative activity (%) (Bgl-gyp17): 0%

SMILES: [Cl][Hg][Cl] [Hg^2+, HgCl2]
effect on Bgl-gyp17 activity [1]: strongly inhibited the activity

SMILES: CC(C)=CCC[C@](C)(O[C@@H]1O[C@H](CO)[C@@H](O)[C@H](O)[C@H]1O)[C@H]1CC[C@]2(C)[C@@H]1[C@H](O)C[C@@H]1[C@@]3(C)CC[C@H](O)C(C)(C)[C@@H]3CC[C@]12C [compound K]
time at which the final product was produced (recombinant Bgl-gyp17 [3]; Rb1 substrate, enzyme 1 mg/ml): 24 h

SMILES: CC(C)=CCC[C@](C)(O)[C@H]1CC[C@]2(C)[C@@H]1[C@H](O)C[C@@H]1[C@@]3(C)CC[C@H](O[C@@H]4O[C@H](CO)[C@@H](O)[C@H](O)[C@H]4O[C@@H]4O[C@H](CO)[C@@H](O)[C@H](O)[C@H]4O)C(C)(C)[C@@H]3CC[C@]12C [ginsenoside Rg3]
conversion of the ginsenoside by the enzyme (product) (recombinant Bgl-gyp17 [2]): produced ginsenoside Rh2
conversion of the ginsenoside by the enzyme (product) (recombinant Bgl-gyp17 [2]; listed as Rg3): PPD

Relative activity (%) [1, 4]: 92.8 ± 4.72%
Relative activity (%) [1, 5]: 72.8 ± 4.27%
SMILES: [Cl-].[Cl-].[Zn+2] [ZnCl2]

SMILES: O=[N+]([O-])c1ccc(O[C@@H]2O[C@@H](CO)[C@H](O)[C@H]2O)cc1 [pNP-α-L-arabinofuranoside]
Relative activity (%) (Bgl-gyp17): 0%

SMILES: C[C@H]1O[C@@H](Oc2ccccc2[N+](=O)[O-])[C@H](O)[C@@H](O)[C@H]1O [oNP-β-D-fucopyranoside]
Relative activity (%) (Bgl-gyp17): 15.88 ± 0.544%

Relative activity (%) [1, 4]: 91.8 ± 4.59%
Relative activity (%) [1, 5]: 101.5 ± 5.23%
SMILES: [Ca+2].[Cl-].[Cl-] [CaCl2]

SMILES: O=[N+]([O-])c1ccc(O[C@@H]2O[C@H](CO)[C@H](O)[C@H](O)[C@H]2O)cc1 [pNP-β-D-glactopyranoside]
Relative activity (%) (Bgl-gyp17): 0%

SMILES: O=[N+]([O-])c1ccccc1O[C@@H]1O[C@H](CO)[C@@H](O)[C@H](O)[C@H]1O [oNP-β-D-glucopyranoside]
Relative activity (%) (Bgl-gyp17): 100.00 ± 3.542%
activity toward substrate (Bgl-gyp17; pH 7.0, 37° C.): highest activity

SMILES: CC(C)=CCC[C@](C)(O[C@@H]1O[C@H](CO[C@@H]2O[C@H](CO)[C@@H](O)[C@H](O)[C@H]2O)[C@@H](O)[C@H](O)[C@H]1O)[C@H]1CC[C@]2(C)[C@@H]1[C@H](O)C[C@@H]1[C@@]3(C)CC[C@H](O)C(C)(C)[C@@H]3CC[C@]12C [gyp LXXV, gypenoside LXXV]
time at which it started to appear (recombinant Bgl-gyp17 [3]; Rb1 substrate, enzyme 1 mg/ml): 10 min
time of decrease to almost undetectable level (recombinant Bgl-gyp17 [3]; Rb1 substrate, enzyme 1 mg/ml): 24 h
time of maximum level (recombinant Bgl-gyp17 [3]; Rb1 substrate, enzyme 1 mg/ml): 2 h
conversion of the ginsenoside by the enzyme (product) (recombinant Bgl-gyp17 [2]): C—K
